The results in this text go back to ChEMBL document CHEMBL3045546, “Synthesis and antimicrobial screening of 4-thiazolidinone and 2-azetidinone derivatives of piperazine” (2013).

What all share (assay type): functional
In one assay the test system is Bacillus cereus. Briefly: Antimicrobial activity against Bacillus cereus ATCC 11778 assessed as growth inhibition by broth dilution method. A general note: Dilution methods test growth across graded concentrations, often in twofold steps.
For a further assay, the system named is Trichoderma viride. The experiment in a line: Antimicrobial activity against Hypocrea rufa ATCC 52440 assessed as growth inhibition by broth dilution method.
The test system of the next assay is Escherichia coli. The experiment in a line: Antimicrobial activity against Escherichia coli ATCC 25922 assessed as growth inhibition by broth dilution method.
Another assay deals with Bacillus subtilis. The experiment in a line: Antimicrobial activity against Bacillus subtilis ATCC 6633 assessed as growth inhibition by broth dilution method.
Another assay relates to Microsporum canis. The experiment in a line: Antimicrobial activity against Arthroderma otae ATCC 11622 assessed as growth inhibition by broth dilution method.
The subject of another assay is Bacillus pumilus. Briefly: Antimicrobial activity against Bacillus pumilus ATCC 14884 assessed as growth inhibition by broth dilution method.
The subject of another assay is Aspergillus niger. Briefly: Antimicrobial activity against Aspergillus niger ATCC 9142 assessed as growth inhibition by broth dilution method.
The next assay relates to Proteus mirabilis. Briefly: Antimicrobial activity against Proteus mirabilis ATCC 49565 assessed as growth inhibition by broth dilution method.
For the next assay, the system named is Proteus vulgaris. The experiment in a line: Antimicrobial activity against Proteus vulgaris ATCC 13315 assessed as growth inhibition by broth dilution method.
Assay [1] has as its system Staphylococcus epidermidis. The experiment in a line: Antimicrobial activity against Staphylococcus epidermidis ATCC 12228 assessed as growth inhibition by broth dilution method.
Another assay has as its system Salmonella typhi. Briefly: Antimicrobial activity against Salmonella enterica subsp. enterica serovar Typhi ATCC 19430 assessed as growth inhibition by broth dilution method.
The subject of a further assay is Aspergillus awamori. The experiment in a line: Antimicrobial activity against Aspergillus awamori ATCC 22342 assessed as growth inhibition by broth dilution method.
A further assay relates to Fusarium solani. Briefly: Antimicrobial activity against Fusarium solani ATCC 38136 assessed as growth inhibition by broth dilution method.
Another assay deals with Candida albicans. Briefly: Antimicrobial activity against Candida albicans ATCC 10231 assessed as growth inhibition by broth dilution method.
A further assay concerns Staphylococcus aureus. The experiment in a line: Antimicrobial activity against Staphylococcus aureus ATCC 25923 assessed as growth inhibition by broth dilution method.
The subject of another assay is Pseudomonas aeruginosa. Briefly: Antimicrobial activity against Pseudomonas aeruginosa ATCC 10145 assessed as growth inhibition by broth dilution method.
The next assay concerns Rhizoctonia solani. The experiment in a line: Antimicrobial activity against Rhizoctonia solani ATCC 76131 assessed as growth inhibition by broth dilution method.
Another assay concerns Micrococcus luteus. Briefly: Antimicrobial activity against Micrococcus luteus ATCC 4698 assessed as growth inhibition by broth dilution method.
The subject of another assay is Trichophyton longifusum. The experiment in a line: Antimicrobial activity against Trichophyton longifusum ATCC 22397 assessed as growth inhibition by broth dilution method.
The test system of a further assay is Aspergillus flavus. Briefly: Antimicrobial activity against Aspergillus flavus ATCC 15517 assessed as growth inhibition by broth dilution method.
In another assay the test system is Klebsiella pneumoniae. The experiment in a line: Antimicrobial activity against Klebsiella pneumoniae ATCC 13883 assessed as growth inhibition by broth dilution method.
A further assay has as its system Aspergillus fumigatus. Briefly: Antimicrobial activity against Aspergillus fumigatus assessed as growth inhibition by broth dilution method.
The subject of another assay is Alternaria alternata. Briefly: Antimicrobial activity against Alternaria alternata ATCC 66868 assessed as growth inhibition by broth dilution method.
A further assay has as its system Staphylococcus hominis. The experiment in a line: Antimicrobial activity against Staphylococcus hominis ATCC 27844 assessed as growth inhibition by broth dilution method.

Converted amounts (≈) assume the structure as drawn.

For `O=C1CSC(c2cccc(O)c2)N1CCN1CCNCC1` (stereo not given), the MIC in the assay on Bacillus cereus came to 18.8 µg/mL (≈ 61 µM); in the assay with Trichoderma viride, 37.5 µg/mL (≈ 122 µM); in the assay with Escherichia coli, 37.5 µg/mL (≈ 122 µM); with Bacillus subtilis it was 37.5 µg/mL (≈ 122 µM); with Microsporum canis it was 37.5 µg/mL (≈ 122 µM); with Bacillus pumilus, 37.5 µg/mL (≈ 122 µM). Further, the minimum inhibitory concentration (MIC) with Aspergillus niger was 37.5 µg/mL (≈ 122 µM); in the assay with Proteus mirabilis, 18.8 µg/mL (≈ 61 µM); in the assay on Proteus vulgaris it was 37.5 µg/mL (≈ 122 µM); in [1], 18.8 µg/mL (≈ 61 µM); with Salmonella typhi it was 18.8 µg/mL (≈ 61 µM); in the assay with Aspergillus awamori it was 37.5 µg/mL (≈ 122 µM). Also, the minimal inhibitory concentration (MIC) in the assay on Fusarium solani turned out to be 75 µg/mL (≈ 244 µM); with Candida albicans it was 37.5 µg/mL (≈ 122 µM); in the assay on Staphylococcus aureus, 37.5 µg/mL (≈ 122 µM); in the assay on Pseudomonas aeruginosa, 37.5 µg/mL (≈ 122 µM); with Rhizoctonia solani it was 37.5 µg/mL (≈ 122 µM); in the assay with Micrococcus luteus, 18.8 µg/mL (≈ 61 µM). Besides, the minimal inhibitory concentration (MIC) in the assay on Trichophyton longifusum came to 37.5 µg/mL (≈ 122 µM); in the assay with Aspergillus flavus it was 37.5 µg/mL (≈ 122 µM); with Klebsiella pneumoniae, 37.5 µg/mL (≈ 122 µM); with Aspergillus fumigatus, 37.5 µg/mL (≈ 122 µM); in the assay with Alternaria alternata it was 75 µg/mL (≈ 244 µM); in the assay on Staphylococcus hominis, 37.5 µg/mL (≈ 122 µM).
Consider `O=C1CSC(c2ccc(O)cc2)N1CCN1CCNCC1` (stereo not given), for which the minimal inhibitory concentration (MIC) with Bacillus cereus turned out to be 9.37 µg/mL (≈ 30.5 µM); in the assay on Trichoderma viride it was 18.8 µg/mL (≈ 61 µM); in the assay on Escherichia coli it was 4.68 µg/mL (≈ 15.2 µM); in the assay with Bacillus subtilis, 4.68 µg/mL (≈ 15.2 µM); in the assay on Microsporum canis, 18.8 µg/mL (≈ 61 µM); with Bacillus pumilus, 9.37 µg/mL (≈ 30.5 µM). In addition, the minimal inhibitory concentration (MIC) was 18.8 µg/mL (≈ 61 µM) in the assay with Aspergillus niger; 9.37 µg/mL (≈ 30.5 µM) with Proteus mirabilis; 4.68 µg/mL (≈ 15.2 µM) in the assay with Proteus vulgaris; 9.37 µg/mL (≈ 30.5 µM) in [1]; 9.37 µg/mL (≈ 30.5 µM) with Salmonella typhi; 18.8 µg/mL (≈ 61 µM) with Aspergillus awamori. In addition, the minimal inhibitory concentration (MIC) with Fusarium solani was determined as 9.73 µg/mL (≈ 31.7 µM); in the assay with Candida albicans, 9.73 µg/mL (≈ 31.7 µM); with Staphylococcus aureus, 9.37 µg/mL (≈ 30.5 µM); with Pseudomonas aeruginosa it was 9.37 µg/mL (≈ 30.5 µM); in the assay on Rhizoctonia solani, 18.8 µg/mL (≈ 61 µM); in the assay with Micrococcus luteus, 9.37 µg/mL (≈ 30.5 µM). The minimal inhibitory concentration (MIC) stood at 9.73 µg/mL (≈ 31.7 µM) in the assay with Trichophyton longifusum; 18.8 µg/mL (≈ 61 µM) in the assay on Aspergillus flavus; 9.37 µg/mL (≈ 30.5 µM) in the assay with Klebsiella pneumoniae; 9.37 µg/mL (≈ 30.5 µM) in the assay on Aspergillus fumigatus; 18.8 µg/mL (≈ 61 µM) with Alternaria alternata; 9.37 µg/mL (≈ 30.5 µM) with Staphylococcus hominis.
With `O=C1CSC(c2ccccc2)N1CCN1CCNCC1` (stereo not given), the minimal inhibitory concentration (MIC) in the assay on Bacillus cereus is 37.5 µg/mL (≈ 129 µM); in the assay with Trichoderma viride, 75 µg/mL (≈ 257 µM); in the assay on Escherichia coli it was 37.5 µg/mL (≈ 129 µM); with Bacillus subtilis, 37.5 µg/mL (≈ 129 µM); in the assay with Microsporum canis, 37.5 µg/mL (≈ 129 µM); in the assay with Bacillus pumilus, 75 µg/mL (≈ 257 µM). The minimal inhibitory concentration (MIC) with Aspergillus niger was found to be 75 µg/mL (≈ 257 µM); in the assay with Proteus mirabilis, 37.5 µg/mL (≈ 129 µM); with Proteus vulgaris, 18.8 µg/mL (≈ 64.3 µM); in [1], 75 µg/mL (≈ 257 µM); in the assay on Salmonella typhi it was 18.8 µg/mL (≈ 64.3 µM); in the assay on Aspergillus awamori, 75 µg/mL (≈ 257 µM). For the same molecule, the MIC worked out at 37.5 µg/mL (≈ 129 µM) in the assay on Fusarium solani; 37.5 µg/mL (≈ 129 µM) in the assay on Candida albicans; 37.5 µg/mL (≈ 129 µM) in the assay on Staphylococcus aureus; 37.5 µg/mL (≈ 129 µM) in the assay with Pseudomonas aeruginosa; 37.5 µg/mL (≈ 129 µM) with Rhizoctonia solani; 75 µg/mL (≈ 257 µM) in the assay with Micrococcus luteus. For the same molecule, the MIC in the assay with Trichophyton longifusum amounted to 75 µg/mL (≈ 257 µM); in the assay with Aspergillus flavus it was 75 µg/mL (≈ 257 µM); in the assay with Klebsiella pneumoniae it was 37.5 µg/mL (≈ 129 µM); in the assay on Aspergillus fumigatus, 37.5 µg/mL (≈ 129 µM); in the assay on Alternaria alternata, 75 µg/mL (≈ 257 µM); in the assay on Staphylococcus hominis, 37.5 µg/mL (≈ 129 µM).
With `COc1cc(C2SCC(=O)N2CCN2CCNCC2)ccc1O` (stereo not given), the MIC in the assay on Bacillus cereus came to 9.37 µg/mL (≈ 27.8 µM); in the assay on Trichoderma viride, 18.8 µg/mL (≈ 55.6 µM); with Escherichia coli, 9.37 µg/mL (≈ 27.8 µM); in the assay on Bacillus subtilis it was 9.37 µg/mL (≈ 27.8 µM); in the assay on Microsporum canis, 18.8 µg/mL (≈ 55.6 µM); with Bacillus pumilus, 9.37 µg/mL (≈ 27.8 µM). Also, the minimal inhibitory concentration (MIC) was 9.73 µg/mL (≈ 28.8 µM) in the assay on Aspergillus niger; 9.37 µg/mL (≈ 27.8 µM) in the assay with Proteus mirabilis; 9.37 µg/mL (≈ 27.8 µM) with Proteus vulgaris; 9.37 µg/mL (≈ 27.8 µM) in assay [1]; 9.37 µg/mL (≈ 27.8 µM) in the assay with Salmonella typhi; 9.73 µg/mL (≈ 28.8 µM) in the assay with Aspergillus awamori. Besides, the MIC was found to be 9.73 µg/mL (≈ 28.8 µM) in the assay on Fusarium solani; 18.8 µg/mL (≈ 55.6 µM) with Candida albicans; 9.37 µg/mL (≈ 27.8 µM) in the assay on Staphylococcus aureus; 9.37 µg/mL (≈ 27.8 µM) in the assay on Pseudomonas aeruginosa; 18.8 µg/mL (≈ 55.6 µM) in the assay on Rhizoctonia solani; 4.68 µg/mL (≈ 13.9 µM) in the assay on Micrococcus luteus. In addition, the minimal inhibitory concentration (MIC) amounted to 9.73 µg/mL (≈ 28.8 µM) in the assay on Trichophyton longifusum; 18.8 µg/mL (≈ 55.6 µM) in the assay with Aspergillus flavus; 9.37 µg/mL (≈ 27.8 µM) in the assay with Klebsiella pneumoniae; 18.8 µg/mL (≈ 55.6 µM) with Aspergillus fumigatus; 9.73 µg/mL (≈ 28.8 µM) in the assay on Alternaria alternata; 9.37 µg/mL (≈ 27.8 µM) with Staphylococcus hominis.
Regarding `COc1ccc(C2SCC(=O)N2CCN2CCNCC2)cc1` (stereo not given), the minimal inhibitory concentration (MIC) was 4.68 µg/mL (≈ 14.6 µM) in the assay on Bacillus cereus; 9.73 µg/mL (≈ 30.3 µM) with Trichoderma viride; 9.37 µg/mL (≈ 29.1 µM) with Escherichia coli; 9.37 µg/mL (≈ 29.1 µM) with Bacillus subtilis; 18.8 µg/mL (≈ 58.3 µM) in the assay with Microsporum canis; 9.37 µg/mL (≈ 29.1 µM) with Bacillus pumilus. Further, the minimal inhibitory concentration (MIC) was 18.8 µg/mL (≈ 58.3 µM) in the assay with Aspergillus niger; 9.37 µg/mL (≈ 29.1 µM) with Proteus mirabilis; 9.37 µg/mL (≈ 29.1 µM) in the assay on Proteus vulgaris; 9.37 µg/mL (≈ 29.1 µM) in assay [1]; 4.68 µg/mL (≈ 14.6 µM) with Salmonella typhi; 9.73 µg/mL (≈ 30.3 µM) in the assay with Aspergillus awamori. The MIC in the assay with Fusarium solani is 18.8 µg/mL (≈ 58.3 µM); in the assay on Candida albicans it was 9.73 µg/mL (≈ 30.3 µM); in the assay on Staphylococcus aureus it was 9.37 µg/mL (≈ 29.1 µM); in the assay with Pseudomonas aeruginosa, 9.37 µg/mL (≈ 29.1 µM); in the assay with Rhizoctonia solani it was 9.73 µg/mL (≈ 30.3 µM); with Micrococcus luteus it was 9.37 µg/mL (≈ 29.1 µM). The MIC in the assay with Trichophyton longifusum was found to be 18.8 µg/mL (≈ 58.3 µM); in the assay with Aspergillus flavus, 18.8 µg/mL (≈ 58.3 µM); in the assay on Klebsiella pneumoniae, 9.37 µg/mL (≈ 29.1 µM); in the assay on Aspergillus fumigatus it was 9.73 µg/mL (≈ 30.3 µM); in the assay on Alternaria alternata, 18.8 µg/mL (≈ 58.3 µM); in the assay on Staphylococcus hominis, 4.68 µg/mL (≈ 14.6 µM).

For orientation: MIC means the lowest concentration that inhibits growth of the organism.
